According to PMC11364775, “Ion occupancy of the selectivity filter controls opening of a cytoplasmic gate in the K2P channel TALK-2” (Nature Communications, 2024):
Read-outs that look alike come from different tables or passages of the source.

Key:
[1] = molecular target: WT TREK-1 channels (Rattus norvegicus, UniProt Q920B6); conditions: TREK-1 WT
Description: Data shown are the mean ± s.e.m and the number (n) of repeats of the representative measurements with similar results is indicated in the figure.
Oocytes were surgically removed from anesthetized adult females, treated with type II collagenase (Sigma-Aldrich/Merck, Germany) and manually defolliculated. 50 nl of a solution containing the K^+ channel specific cRNA was injected into Dumont stage V - VI oocytes and subsequently incubated at 17 °C in a solution containing (mM): 54 NaCl, 30 KCl, 2.4 NaHCO3, 0.82 MgSO4 x 7 H2O, 0.41 CaCl2, 0.33 Ca(NO3)2 x 4 H2O and 7.5 TRIS (pH 7.4 adjusted with NaOH/HCl) for 1–7 days before use. Electrophysiological recordings: Excised patch measurements in inside-out configuration under voltage-clamp conditions were performed at room temperature (22 – 24 °C). Patch pipettes were made from thick-walled borosilicate glass GB 200TF-8P (Science Products, Germany), had resistances of 0.2–0.5 MΩ (tip diameter of 10 - 25 µm) and filled with a pipette solution (in mM): 120 KCl, 10 HEPES and 3.6 CaCl2 (pH 7.0 - 8.5 adjusted with KOH/HCl) or 120 KCl, 10 AMPSO and 3.6 CaCl2 (pH 9.0 - 10.5 adjusted with KOH/HCl). Intracellular bath solutions and compounds were applied to the cytoplasmic side of excised patches for the various K^+ channels via a gravity flow multi-barrel pipette system. Intracellular solution had the following composition (in mM): 120 KCl, 10 HEPES, 2 EGTA and 1 Pyrophosphate (pH adjusted with KOH/HCl). In other intracellular bath solutions, K^+ was replaced by Rb^+ (pH 7.4 adjusted with RbOH/HCl). Currents were recorded with an EPC10 amplifier (HEKA electronics, Germany) and sampled at 10 kHz or higher and filtered with 3 kHz (-3 dB) or higher as appropriate for sampling rate.

[2] = molecular target: T1, WT TALK-2 channels (human K2P17.1) (Homo sapiens, UniProt Q96T54); assay: Inside-out patch-clamp, ligand activation of channel currents at +40 mV (oocytes)
T1 sequence (Q96T54 1-332): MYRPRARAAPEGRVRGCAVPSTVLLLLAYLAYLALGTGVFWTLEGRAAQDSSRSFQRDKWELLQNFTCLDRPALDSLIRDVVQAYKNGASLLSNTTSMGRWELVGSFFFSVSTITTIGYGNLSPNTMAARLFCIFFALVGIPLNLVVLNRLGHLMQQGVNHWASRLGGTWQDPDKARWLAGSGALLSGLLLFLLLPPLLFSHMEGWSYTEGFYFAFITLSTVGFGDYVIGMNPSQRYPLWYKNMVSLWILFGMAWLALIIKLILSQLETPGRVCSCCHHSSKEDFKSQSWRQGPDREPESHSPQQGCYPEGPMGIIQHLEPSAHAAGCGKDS
Description: Oocytes were surgically removed from anesthetized adult females, treated with type II collagenase (Sigma-Aldrich/Merck, Germany) and manually defolliculated. 50 nl of a solution containing the K^+ channel specific cRNA was injected into Dumont stage V - VI oocytes and subsequently incubated at 17 °C in a solution containing (mM): 54 NaCl, 30 KCl, 2.4 NaHCO3, 0.82 MgSO4 x 7 H2O, 0.41 CaCl2, 0.33 Ca(NO3)2 x 4 H2O and 7.5 TRIS (pH 7.4 adjusted with NaOH/HCl) for 1–7 days before use. Electrophysiological recordings: Excised patch measurements in inside-out configuration under voltage-clamp conditions were performed at room temperature (22 – 24 °C). […] Intracellular bath solutions and compounds were applied to the cytoplasmic side of excised patches for the various K^+ channels via a gravity flow multi-barrel pipette system. Intracellular solution had the following composition (in mM): 120 KCl, 10 HEPES, 2 EGTA and 1 Pyrophosphate (pH adjusted with KOH/HCl). In other intracellular bath solutions, K^+ was replaced by Rb^+ (pH 7.4 adjusted with RbOH/HCl). Currents were recorded with an EPC10 amplifier (HEKA electronics, Germany) and sampled at 10 kHz or higher and filtered with 3 kHz (-3 dB) or higher as appropriate for sampling rate.
Recorded currents were analyzed from stable membrane patches at a voltage defined in the respective figure legend or with a voltage protocol as indicated in the respective figure. The fold activation (fold change in (tail) current amplitude) of a ligand (drug or bioactive lipid) was calculated from Eq. 1:1 Fold activationFA=Iactivated/Ibasal where Iactivated represents the stable current level in the presence of a given concentration of a respective ligand and Ibasal the measured current before ligand application. Percentage inhibition or residual currents upon blocker application for a ligand (drug or bioactive lipid) was calculated from stable currents of excised membrane patches using the following Eqs. 2 and 3:2 %inhibition=1−Iinhibited/Ibasal*100 3 Residual current=100−%inhibition where Iinhibited refers to the stable current level recorded in the presence of a given concentration of a drug or bioactive lipid and Ibasal to the measured current before ligand application. The macroscopic half-maximal concentration-inhibition relationship of a ligand was obtained using a Hill-fit for dose-response curves as depicted in Eq. 4:4 %inhibition/activation=Ibase+Imax−Ibase/1+x1/2/x^rate where base and max are the currents in the absence and presence of a respective ligand, x is the concentration of the ligand, x1/2 is the ligand concentration at which the activatory or inhibitory effect is half-maximal, rate is the Hill coefficient.

[3] = molecular target: T2, WT TALK-2 channels (Homo sapiens, UniProt Q96T54); assay: Conductance-voltage (G-V) curves from tail currents, V1/2 (intracellular Rb+); format: cell-based; design: expressed in transfected cells; host or cells: Xenopus laevis oocytes (cRNA injection), excised inside-out patches; conditions: for Normalized current: TALK-2 WT + 1 mM 2-APB
T2 sequence (Q96T54 1-332): T1 sequence (Q96T54 1-332)
Description: The voltage-dependent activation mechanism of the SF gate in K2P channels allows to estimate the electrical work (ΔG = zFΔV1/2) required for pore opening by fitting the G–V curve to a Boltzmann equation. […] The open state represents the situation of both gates being simultaneously open but voltage can only exert force on the SF gate that functions as voltage sensor. […] We further tested whether mutations that open the lower gate (L262A and L264A) would affect the extracellular pH sensitivity. […] We further explored this concept of allosteric coupling using the mutations identified in the functional alanine screen of TM2 and TM4. […]
Conductance-voltage (G–V) relationships were determined from tail currents recorded at a holding potential (VH) of −80 mV after 300 ms depolarizing steps as indicated in the respective figure legend. Data were analyzed with a single Boltzmann fit following Eq. 6:6 GV=Imax/1+e^V−V1/2/slope+Ibase where V1/2 represents the voltage of half-maximal activation, s is the slope factor and Imax and Ibase represent the upper and lower asymptotes. Under appropriate experimental conditions, you can use slope to calculate the valence (charge) of the ion moving across the channel. Slope equals R * T/ z * F where R is the universal gas constant, T is temperature in K, F is the Faraday constant, and z is the valence.

WT TREK-1 channels, sequence (Q920B6 whole entry): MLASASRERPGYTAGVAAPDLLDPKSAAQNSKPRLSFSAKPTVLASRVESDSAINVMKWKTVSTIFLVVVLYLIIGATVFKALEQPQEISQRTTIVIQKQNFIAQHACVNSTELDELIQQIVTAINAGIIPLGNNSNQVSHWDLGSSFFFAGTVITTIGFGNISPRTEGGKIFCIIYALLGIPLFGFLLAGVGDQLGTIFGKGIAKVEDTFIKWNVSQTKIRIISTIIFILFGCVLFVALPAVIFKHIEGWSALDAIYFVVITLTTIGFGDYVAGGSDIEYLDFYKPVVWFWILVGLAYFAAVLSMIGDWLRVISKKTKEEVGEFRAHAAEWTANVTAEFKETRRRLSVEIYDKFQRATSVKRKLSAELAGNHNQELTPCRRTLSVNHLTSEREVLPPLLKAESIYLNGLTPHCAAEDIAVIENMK

`NCCOB(c1ccccc1)c1ccccc1` [2-APB, 2-aminoethoxydiphenyl borate] was tested, and the “Rb+-induced current” value ([1]; 0.001 mM 2-APB) was 2.62 nA, the “Rb+-induced current” value ([1]; 0.01 mM 2-APB) was 2.54 nA and the “Rb+-induced current” value ([1]; 0.1 mM 2-APB) was 1.29 nA. For the same molecule, the “Rb+-induced current” value ([1]; 0.5 mM 2-APB) was -0.03 nA, the “Rb+-induced current” value ([1]; 1.0 mM 2-APB) was -0.44 nA and the “Rb+-induced current” value ([1]; 2.0 mM 2-APB) was 0.00 nA. For the same molecule, the EC50 [2] was 421 ± 34 µM, the “Fold activation 1 mM 2-APB” value ([2]; 1 mM, TALK-2 WT) was 26.51 fold and the Normalized currents ([2]; TALK-2 WT, 0.1 µM 2-APB) was 0.04. The Normalized currents ([2]; TALK-2 WT, 1 µM 2-APB) was 0.04, the Normalized currents ([2]; TALK-2 WT, 10 µM 2-APB) was 0.05 and the Normalized currents ([2]; TALK-2 WT, 100 µM 2-APB) was 0.19. It also gave a Normalized currents ([2]; TALK-2 WT, 500 µM 2-APB) of 0.58, a Normalized currents ([2]; TALK-2 WT, 1000 µM 2-APB) of 0.87 and a Normalized currents ([2]; TALK-2 WT, 2000 µM 2-APB) of 1.00. For the same molecule, the “V1/2 shift (mV)” value ([3]; 1 mM 2-APB, shift of G-V curve) was 26.9 mV, the Normalized current ([3]; Voltage 0.000) was 0.204 and the Normalized current ([3]; Voltage 0.005) was 0.227. It also gave a Normalized current ([3]; Voltage 0.010) of 0.255, a Normalized current ([3]; Voltage 0.015) of 0.290 and a Normalized current ([3]; Voltage 0.020) of 0.331. The Normalized current ([3]; Voltage 0.025) was 0.376, the Normalized current ([3]; Voltage 0.030) was 0.427 and the Normalized current ([3]; Voltage 0.035) was 0.474. The Normalized current ([3]; Voltage 0.040) was 0.520, the Normalized current ([3]; Voltage 0.045) was 0.565 and the Normalized current ([3]; Voltage 0.050) was 0.611. The Normalized current ([3]; Voltage 0.055) was 0.652, the Normalized current ([3]; Voltage 0.060) was 0.689 and the Normalized current ([3]; Voltage 0.065) was 0.723. The Normalized current ([3]; Voltage 0.070) was 0.754, the Normalized current ([3]; Voltage 0.075) was 0.784 and the Normalized current ([3]; Voltage 0.080) was 0.809. The Normalized current ([3]; Voltage 0.085) was 0.834, the Normalized current ([3]; Voltage 0.090) was 0.854 and the Normalized current ([3]; Voltage 0.095) was 0.872. It also gave a Normalized current ([3]; Voltage 0.100) of 0.891, a Normalized current ([3]; Voltage 0.105) of 0.905 and a Normalized current ([3]; Voltage 0.110) of 0.919. It also gave a Normalized current ([3]; Voltage 0.115) of 0.931, a Normalized current ([3]; Voltage 0.120) of 0.943 and a Normalized current ([3]; Voltage 0.125) of 0.952. It also gave a Normalized current ([3]; Voltage 0.130) of 0.961, a Normalized current ([3]; Voltage 0.135) of 0.972 and a Normalized current ([3]; Voltage 0.140) of 0.971. It also gave a Normalized current ([3]; Voltage 0.145) of 0.979, a Normalized current ([3]; Voltage 0.150) of 0.985 and a Normalized current ([3]; Voltage 0.155) of 0.989. For the same molecule, the Normalized current ([3]; Voltage 0.160) was 0.992, the Normalized current ([3]; Voltage -0.005) was 0.187 and the Normalized current ([3]; Voltage -0.010) was 0.175. The Normalized current ([3]; Voltage -0.015) was 0.167, the Normalized current ([3]; Voltage -0.020) was 0.158 and the Normalized current ([3]; Voltage -0.025) was 0.153. For the same molecule, the Normalized current ([3]; Voltage -0.030) was 0.148, the Normalized current ([3]; Voltage -0.035) was 0.143 and the Normalized current ([3]; Voltage -0.040) was 0.140. For the same molecule, the Normalized current ([3]; Voltage -0.045) was 0.136, the Normalized current ([3]; Voltage -0.050) was 0.131 and the Normalized current ([3]; Voltage -0.055) was 0.128. For the same molecule, the Normalized current ([3]; Voltage -0.060) was 0.125, the Normalized current ([3]; Voltage -0.065) was 0.121 and the Normalized current ([3]; Voltage -0.070) was 0.118. For the same molecule, the Normalized current ([3]; Voltage -0.075) was 0.115, the Normalized current ([3]; Voltage -0.080) was 0.114 and the Normalized current ([3]; Voltage -0.085) was 0.112. The Normalized current ([3]; Voltage -0.090) was 0.113, the Normalized current ([3]; Voltage -0.095) was 0.112 and the Normalized current ([3]; Voltage -0.100) was 0.112. For the same molecule, the Normalized current ([3]; Voltage -0.105) was 0.111, the Normalized current ([3]; Voltage -0.110) was 0.110 and the Normalized current ([3]; Voltage -0.115) was 0.110. The Normalized current ([3]; Voltage -0.120) was 0.111 and the V1/2 ([3]; TALK-2 WT, 1 mM ligand) was 44.7 mV.
